Results as given in patent publication US20130288956A1, “COMBINED PHARMACEUTICAL COMPOSITION AS ANTIFUNGAL AGENT” (priority 2010, published 2013).
Numbered stars: 1 amine (or outer) side, 2 acyl side, 3 side chain; on linkers, the order of the positions; unused ones are H or OH. Bridge positions count the residues as written; N and C are the ends. Square brackets hold non-standard residues; d marks the D form. Peptide text beside a SMILES is read from it. * marks the point of attachment. hTyr(3S-OH,4S-OH,3'-OSO3H) = N[C@H](C(=O)O)[C@H](O)[C@@H](O)c1ccc(O)c(OS(=O)(=O)O)c1; Orn(4R-OH,5R-OH) = O=C([C@H](C[C@@H](O)[C@@H](O)N[*:3])N[*:1])[*:2]; Pro(3S-OH,4S-Me) = C[C@H]1CN[C@H](C(=O)O)[C@H]1O; X1 = CCCCCOc1ccc(-c2cc(-c3ccc(C(=O)*)cc3)no2)cc1; Gln(3R-OH) = NC(=O)C[C@@H](O)[C@H](N)C(=O)O; Hyp = O=C(O)[C@@H]1C[C@@H](O)CN1

How the values were obtained:
C. albicans = test: In vitro combination effects, checkerboard method by micro dilution (FIC index); format: cell-based, Candida albicans
Procedure: (§1) A clinically isolated strain retained by the Medical Mycology Research Center of Chiba University (Code No. IFM) and a clinically isolated strain retained by the Life Science Research Center of Gifu University (Code No. E) were used as Candida and Aspergillus strains.
(§2) Fungus liquid obtained by static culturing at 35° C. for 48 hours in Sabouraud Dextrose liquid medium (SDB, Becton, Dickinson and Co.) was diluted with RPMI 1640 medium (Nissui Pharmaceutical Co., Ltd.) containing 0.165 M 3-(N-morpholino)propanesulfonic acid (MOPS) to prepare a fungus liquid having a fungus concentration of 1×10^3 cells/mL to 2×10^3 cells/mL.
(§3) Test Compound 1 (0.0005 μg/mL to 1.56 μg/mL) in the horizontal rows (12 wells) of a 96-well flat-bottom plate, and an antifungal agent in the form of ravuconazole (0.0015 μg/mL to 6.25 μg/mL), fluconazole (0.008 μg/mL to 32 μg/mL), voriconazole (0.0002 μg/mL to 8 μg/mL), micafungin (0.0005 μg/mL to 0.25 μg/mL), caspofungin (0.0005 μg/mL to 1 μg/mL) or amphotericin B (0.008 μg/mL to 8 μg/mL) in the vertical rows (8 wells) of the flat-bottom plate were prepared by diluting so as to blend together using RPMI 1640 medium containing 0.165 M MOPS to obtain a control group, a single Test Compound 1 group, each one of antifungal agents groups and combination groups of Test Compound 1+each one of antifungal agents.
(§4) The fungus liquids prepared in (1) were inoculated into the wells of 96-well flat-bottom plate containing 20 μL/well to 75 μL/well of the diluted test drug liquids prepared in (2) at 80 μL/well to 125 μL/well, followed by aerobically static culturing for 25 hours to 48 hours at 35° C.
(§5) Combination effects of Test Compound 1 and the antifungal agents were measured with the checkerboard method by micro dilution.
(§6) Interaction between both drugs was assessed by calculating the FIC index using the calculation formula indicated below.
(§7) The FIC index was calculated for each combination of antifungal agent concentrations that inhibited fungal growth, and the minimum value of the resulting FIC index was used as a combination FIC index.
(§8) A combination FIC index of 0.5 or less was evaluated as indicating synergistic action, that of 0.5 to 1 or less was evaluated as indicating additive action, and that of 1 to 4 or less was evaluated as indicating indifferent action.
(§9) FIC Index=(MIC value of drug A during combination use/MIC value of drug A when used alone)+(MIC value of drug B during combination use/MIC value of drug B when used alone) (Calculation Formula)

C. glabrata = test: as above; format: cell-based, Candida glabrata; details: combination use with Test Compound 1
Procedure: as §1, §2, §3, §4, §5, §6, §7, §8, §9

C. tropicalis = test: as above; format: cell-based, Candida tropicalis
Procedure: as §1, §2, §3, §4, §5, §6, §7, §8, §9

A. fumigatus = test: as above; format: cell-based, Aspergillus fumigatus
Procedure: as §1
(§10) An Aspergillus strain stored frozen at −80° C., or spores obtained by static culturing at 35° C. for 1 week in Potato Dextrose agar medium (PDA, Eiken Chemical Co., Ltd.) followed by scraping from the container with a metal loop, was diluted with RPMI 1640 medium containing 0.165 M MOPS to prepare a fungus liquid having a fungus concentration of 0.75×10^4 cells/mL to 1.33×10^4 cells/mL.
as §3, §4, §5, §6, §7, §8, §9

[1] = tested on: A. fumigatus strain IFM52108; test: A. fumigatus respiratory tract infection model; format: in vivo, mice; details: for Combination effects in mouse Aspergillus fumigatus infection model: combination with the test compound of the invention
Procedure: (§11) Female DBA/2N mice (age 8 weeks, Charles River Laboratories Japan, Inc.) were subcutaneously administered 200 mg/kg of 5-fluorouracil 5 or 6 days prior to infection in order to put the mice into a compromised state.
(§12) A. fumigatus strain IFM52108 and A. flavus strain IFM50915 were used.
A liquid containing spores of A. fumigatus strain IFM52108 stored at −80° C. was applied to Potato Dextrose agar medium (PDA, Eiken Chemical Co., Ltd.) followed by static culturing for 5 to 7 days at 35° C. and suspending in sterile physiological saline containing 0.05% Tween 80.
The number of spores was counted using a hemocytometer, and the liquid was diluted with sterile physiological saline containing 0.05% Tween 80 to a concentration of 1.2×10^6 cells/mL to 2.5×10^6 cells/mL to obtain an inoculation fungus liquid.
(§13) 50 μl of inoculation fungus liquid were inoculated into the nasal cavities of 9-week-old mice at 0.3×10^5 cells/mouse to 1.25×10^5 cells/mouse under Ketalar anesthesia.
(§14) 0.1 mL to 0.2 mL of each drug solution (dissolved in sterile physiological saline or 5% glucose solution, or dissolved in sterile physiological saline or 5% glucose solution containing 6.5% dimethylsulfoxide and 3.5% Tween 80) was administered to the individual and combination dose groups either into the peritoneal cavity or into the stomach using a gastric cannula corresponding to the administration route of the drug for 3 to 4 days at the rate of 1 to 2 times per day starting 0.5 hours to 1 hour after inoculation of fungus.
(§15) There were 5 to 9 animals in each group.
(§16) Infection protection results were assessed on survival rate 14 days after infection.

[2] = tested on: A. flavus strain IFM50915; test: A. flavus respiratory tract infection model; format: in vivo, mice
Procedure: as §11, §12
A liquid containing spores of A. flavus strain IFM50915 stored at −80° C. was thawed, and the number of spores was counted using a hemocytometer followed by diluting with sterile physiological saline containing 0.05% Tween 80 to a concentration of 0.6×10^6 cells/mL to 1.0×10^6 cells/mL to obtain an inoculation fungus liquid.
as §13, §14, §15, §16

A. flavus = test: In vitro combination effects, checkerboard method by micro dilution (FIC index); format: cell-based, Aspergillus flavus; details: A. flavus (4 strains)
Procedure: as §1, §10, §3, §4, §5, §6, §7, §8, §9

## CCCCCOc1ccc(-c2cc(-c3ccc(C(=O)N[C@H]4C[C@@H](O)[C@@H](O)NC(=O)[C@@H]5[C@@H](O)[C@@H](C)CN5C(=O)[C@H]([C@H](O)CC(N)=O)NC(=O)[C@H]([C@H](O)[C@@H](O)c5ccc(O)c(OS(=O)(=O)O)c5)NC(=O)[C@@H]5C[C@@H](O)CN5C(=O)[C@H]([C@@H](C)O)NC4=O)cc3)no2)cc1 [Micafungin, micafungin] (X1-[Orn(4R-OH,5R-OH)]T[Hyp][hTyr(3S-OH,4S-OH,3'-OSO3H)][Gln(3R-OH)][Pro(3S-OH,4S-Me)]; lactam 1-C)
C. albicans; C. albicans (20 strains)
  Ratio indicating Additive effect of combination use with Test Compound 1: 80%
  Ratio indicating Antagonistic effect of combination use with Test Compound 1: 0%
  Ratio indicating Indifferent effect of combination use with Test Compound 1: 20%
  Ratio indicating Synergistic effect of combination use with Test Compound 1: 0%
C. glabrata; C. glabrata (10 strains)
  Ratio indicating Additive effect of combination use with Test Compound 1: 70%
  Ratio indicating Antagonistic effect of combination use with Test Compound 1: 0%
  Ratio indicating Indifferent effect of combination use with Test Compound 1: 30%
  Ratio indicating Synergistic effect of combination use with Test Compound 1: 0%
C. tropicalis; C. tropicalis (10 strains)
  Ratio indicating Additive effect of combination use with Test Compound 1: 100%
  Ratio indicating Antagonistic effect of combination use with Test Compound 1: 0%
  Ratio indicating Indifferent effect of combination use with Test Compound 1: 0%
  Ratio indicating Synergistic effect of combination use with Test Compound 1: 0%
A. fumigatus; A. fumigatus (18 strains)
  Ratio indicating Additive effect of combination use with Test Compound 1: 0%
  Ratio indicating Antagonistic effect of combination use with Test Compound 1: 0%
  Ratio indicating Indifferent effect of combination use with Test Compound 1: 0%
  Ratio indicating Synergistic effect of combination use with Test Compound 1: 100%
[1]; MCFG 1 mg/kg
  14-day survival rate: 0%
[1]; MCFG 2 mg/kg
  14-day survival rate: 40%
[1]
  Combination effects in mouse Aspergillus fumigatus infection model: synergistic combination effects
[2]; MCFG 0.25 mg/kg, Table 5
  14-day survival rate: 0%
[2]; MCFG 0.5 mg/kg, Table 4
  14-day survival rate: 50%
[2]; MCFG 0.5 mg/kg, Table 5
  14-day survival rate: 33.3%
[2]; combination with the test compound of the invention
  Combined effects in mouse Aspergillus flavus infection model: synergistic combined effects
A. flavus; Table 1
  Ratio indicating Additive effect of combination use with Test Compound 1: 0%
  Ratio indicating Antagonistic effect of combination use with Test Compound 1: 0%
  Ratio indicating Indifferent effect of combination use with Test Compound 1: 0%
  Ratio indicating Synergistic effect of combination use with Test Compound 1: 100%

## C[C@@H](c1nc(-c2ccc(C#N)cc2)cs1)[C@](O)(Cn1cncn1)c1ccc(F)cc1F [Ravuconazole, ravuconazole]
C. albicans; C. albicans (9 strains)
  Ratio indicating Additive effect of combination use with Test Compound 1: 56%
  Ratio indicating Antagonistic effect of combination use with Test Compound 1: 0%
  Ratio indicating Indifferent effect of combination use with Test Compound 1: 0%
  Ratio indicating Synergistic effect of combination use with Test Compound 1: 44%
C. albicans; Candida albicans IFM49738, resistant to azole antifungal agents
  Effect of combination use with Test Compound 1 (FIC index evaluation): synergistic (A combination FIC index of 0.5 or less was evaluated as indicating synergistic action)
C. glabrata; C. glabrata (5 strains)
  Ratio indicating Additive effect of combination use with Test Compound 1: 60%
  Ratio indicating Antagonistic effect of combination use with Test Compound 1: 0%
  Ratio indicating Indifferent effect of combination use with Test Compound 1: 0%
  Ratio indicating Synergistic effect of combination use with Test Compound 1: 40%
C. tropicalis; C. tropicalis (5 strains)
  Ratio indicating Additive effect of combination use with Test Compound 1: 0%
  Ratio indicating Antagonistic effect of combination use with Test Compound 1: 0%
  Ratio indicating Indifferent effect of combination use with Test Compound 1: 0%
  Ratio indicating Synergistic effect of combination use with Test Compound 1: 100%
C. tropicalis; Candida tropicalis strains E83037, E83038, E83039, E83040 and E83041, resistant to azole antifungal agents
  Effect of combination use with Test Compound 1 (FIC index evaluation): synergistic (A combination FIC index of 0.5 or less was evaluated as indicating synergistic action)
A. fumigatus; A. fumigatus (16 strains)
  Ratio indicating Additive effect of combination use with Test Compound 1: 6%
  Ratio indicating Antagonistic effect of combination use with Test Compound 1: 0%
  Ratio indicating Indifferent effect of combination use with Test Compound 1: 94%
  Ratio indicating Synergistic effect of combination use with Test Compound 1: 0%
[1]; RVCZ 5 mg/kg
  14-day survival rate: 0%
[1]; RVCZ 10 mg/kg
  14-day survival rate: 40%
[1]
  Combination effects in mouse Aspergillus fumigatus infection model: synergistic combination effects
[2]; RVCZ 2.5 mg/kg
  14-day survival rate: 40%
[2]; RVCZ 5 mg/kg
  14-day survival rate: 80%
A. flavus; Table 2
  Ratio indicating Additive effect of combination use with Test Compound 1: 25%
  Ratio indicating Antagonistic effect of combination use with Test Compound 1: 0%
  Ratio indicating Indifferent effect of combination use with Test Compound 1: 75%
  Ratio indicating Synergistic effect of combination use with Test Compound 1: 0%
